Assay results taken from patent US20230348442A1, “GALECTIN-3 INHIBITING 2-HYDROXYCYCLOALKANE-1-CARBAMOYL DERIVATIVES” (Idorsia Pharmaceuticals Ltd, priority 2020, published 2023).

Target: human Gal-3 (hGal-3) (Homo sapiens (Human), UniProt P17931)
Test: competitive binding assay: binding of biotinylated hGal-3 to microplate-adsorbed asialofetuin (ASF), spectrophotometric
Conditions: Activity on hGal-3; mean values of several measurements
Method: Evaluation of Compound Inhibitory Activity (IC50)
The inhibitory activity of compounds is determined in competitive binding assays. This spectrophotometric assay measures the binding of biotinylated human Gal-3 (hGal-3) or human Gal-1 (hGal-1), respectively, to a microplate-adsorbed glycoprotein, asialofetuin (ASF) (Proc Natl Acad Sci USA. 2013 Mar. 26; 110(13):5052-7.). Alternatively, and preferably, a human Gal-1 version in which all six cysteines are substituted by serines may be used.
Briefly, compounds are serially diluted in DMSO (working dilutions). ASF-coated 384 well plates are supplemented with 22.8 μL/well of biotinylated hGal-3 or hGal-1 in assay buffer (i.e. 300-1000 ng/mL biotinylated hGal-3 or hGal-1) to which 1.2 μL of compound working dilutions are added and mixed.
Plates are incubated for 3 hours at 4° C., then washed with cold assay buffer (3×50 uL), incubated for 1 hour with 25 μL/well of a streptavidin-peroxidase solution (diluted in assay buffer to 80 ng/mL) at 4° C., followed by further washing steps with assay buffer (3×50 uL). Finally, 25 μL/well of ABTS substrate is added.
The calculated IC50 values may fluctuate depending on the daily assay performance. Fluctuations of this kind are known to those skilled in the art. IC50 values from several measurements are given as mean values.

Sequence of human Gal-3 (hGal-3) (P17931 whole entry): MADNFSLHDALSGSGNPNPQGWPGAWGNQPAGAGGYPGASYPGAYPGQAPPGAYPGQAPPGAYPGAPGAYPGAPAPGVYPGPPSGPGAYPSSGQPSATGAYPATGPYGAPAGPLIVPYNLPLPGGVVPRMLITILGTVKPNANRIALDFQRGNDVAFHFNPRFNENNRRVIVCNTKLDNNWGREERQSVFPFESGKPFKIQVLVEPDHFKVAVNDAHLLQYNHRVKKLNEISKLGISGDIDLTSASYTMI

Row | SMILES | IC50 [µM]
1 | CO[C@@H]1[C@@H](n2cc(-c3ccc(C#N)c(F)c3)nn2)[C@@H](O)[C@@H](CO)O[C@H]1C(=O)N(c1cc(Br)cc(C#N)c1)[C@@H]1CC[C@H]1O [Example 2.16.5R, (2R,3R,4S,5R,6R)-N-(3-bromo-5-cyanophenyl)-4-(4-(4-cyano-3-fluorophenyl)-1H-1,2,3-triazol-1-yl)-5-hydroxy-N-((1R,2R)-2-hydroxycyclobutyl)-6-(hydroxymethyl)-3-methoxytetrahydro-2H-pyran-2-carboxamide] | 0.805
2 | CO[C@@H]1[C@@H](n2cc(-c3cc(F)c(F)c(F)c3)nn2)[C@@H](O)[C@@H](CO)O[C@H]1C(=O)N(c1cc(Cl)cc(Cl)c1)[C@@H]1CCC[C@H]1O [Example 1.1.2R, (2R,3R,4S,5R,6R)-N-(3,5-dichlorophenyl)-5-hydroxy-N-((1R,2R)-2-hydroxycyclopentyl)-6-(hydroxymethyl)-3-methoxy-4-(4-(3,4,5-trifluorophenyl)-1H-1,2,3-triazol-1-yl)tetrahydro-2H-pyran-2-carboxamide] | 0.104
3 | CO[C@@H]1[C@@H](n2cc(-c3ccc(C#N)c(F)c3)nn2)[C@@H](O)[C@@H](CO)O[C@H]1C(=O)N(c1cc(Br)cc(C#N)c1)[C@@H]1CCC[C@H]1O [Example 1.16.5R, (2R,3R,4S,5R,6R)-N-(3-bromo-5-cyanophenyl)-4-(4-(4-cyano-3-fluorophenyl)-1H-1,2,3-triazol-1-yl)-5-hydroxy-N-((1R,2R)-2-hydroxycyclopentyl)-6-(hydroxymethyl)-3-methoxytetrahydro-2H-pyran-2-carboxamide] | 0.729
4 | CO[C@@H]1[C@@H](n2cc(-c3cc(F)c(F)c(F)c3)nn2)[C@@H](O)[C@@H](CO)O[C@H]1C(=O)N(c1cccc(Cl)c1)[C@@H]1CC[C@H]1O [Example 2.1.1R, (2R,3R,4S,5R,6R)-N-(3-chlorophenyl)-5-hydroxy-N-((1R,2R)-2-hydroxycyclobutyl)-6-(hydroxymethyl)-3-methoxy-4-(4-(3,4,5-trifluorophenyl)-1H-1,2,3-triazol-1-yl)tetrahydro-2H-pyran-2-carboxamide] | 4.4
5 | COc1cc(C#N)cc(N(C(=O)[C@@H]2O[C@H](CO)[C@H](O)[C@H](n3cc(-c4cc(F)cc(Br)c4)nn3)[C@H]2OC)[C@@H]2CC[C@H]2O)c1 [Example 2.10.9R, (2R,3R,4S,5R,6R)-4-(4-(3-bromo-5-fluorophenyl)-1H-1,2,3-triazol-1-yl)-N-(3-cyano-5-methoxyphenyl)-5-hydroxy-N-((1R,2R)-2-hydroxycyclobutyl)-6-(hydroxymethyl)-3-methoxytetrahydro-2H-pyran-2-carboxamide] | 0.976
6 | CO[C@@H]1[C@@H](n2cc(-c3cc(F)c(F)c(F)c3)nn2)[C@@H](O)[C@@H](CO)O[C@H]1C(=O)N(c1cc(Cl)cc(Cl)c1)[C@H]1CCC[C@@H]1O [Example 1.1.2, (2R,3R,4S,5R,6R)-N-(3,5-dichlorophenyl)-5-hydroxy-N-((1S,2S)-2-hydroxycyclopentyl)-6-(hydroxymethyl)-3-methoxy-4-(4-(3,4,5-trifluorophenyl)-1H-1,2,3-triazol-1-yl)tetrahydro-2H-pyran-2-carboxamide] | 0.0374

The next lines start with the values.

Row | IC50 [µM] | SMILES
7 | 0.0149 | CO[C@@H]1[C@@H](n2cc(-c3ccc(C)c(F)c3F)nn2)[C@@H](O)[C@@H](CO)O[C@H]1C(=O)N(c1cc(Br)cc(C#N)c1)[C@H]1CCC[C@@H]1O [Example 1.11.5, (2R,3R,4S,5R,6R)-N-(3-bromo-5-cyanophenyl)-4-(4-(2,3-difluoro-4-methylphenyl)-1H-1,2,3-triazol-1-yl)-5-hydroxy-N-((1S,2S)-2-hydroxycyclopentyl)-6-(hydroxymethyl)-3-methoxytetrahydro-2H-pyran-2-carboxamide]
8 | 0.0907 | CO[C@@H]1[C@@H](n2cc(-c3ccc(Br)c(F)c3F)nn2)[C@@H](O)[C@@H](CO)O[C@H]1C(=O)N(c1cc(Cl)cc(C#N)c1)[C@@H]1CCC[C@H]1O [Example 1.12.4R, (2R,3R,4S,5R,6R)-4-(4-(4-bromo-2,3-difluorophenyl)-1H-1,2,3-triazol-1-yl)-N-(3-chloro-5-cyanophenyl)-5-hydroxy-N-((1R,2R)-2-hydroxycyclopentyl)-6-(hydroxymethyl)-3-methoxytetrahydro-2H-pyran-2-carboxamide]
9 | 0.0253 | CC(=O)O[C@@H]1[C@@H](n2cc(-c3cc(F)c(F)c(F)c3)nn2)[C@@H](O)[C@@H](CO)O[C@H]1C(=O)N(c1cc(Cl)cc(C#N)c1)[C@H]1CCC[C@@H]1O [Example 1A.1.4, (2R,3R,4S,5R,6R)-2-((3-chloro-5-cyanophenyl)((1S,2S)-2-hydroxycyclopentyl)carbamoyl)-5-hydroxy-6-(hydroxymethyl)-4-(4-(3,4,5-trifluorophenyl)-1H-1,2,3-triazol-1-yl)tetrahydro-2H-pyran-3-yl acetate]
10 | 0.103 | CO[C@@H]1[C@@H](n2cc(-c3cc(F)c(F)c(Cl)c3)nn2)[C@@H](O)[C@@H](CO)O[C@H]1C(=O)N(c1cc(Cl)cc(C#N)c1)[C@@H]1CCC[C@H]1O [Example 1.7.4R, (2R,3R,4S,5R,6R)-4-(4-(3-chloro-4,5-difluorophenyl)-1H-1,2,3-triazol-1-yl)-N-(3-chloro-5-cyanophenyl)-5-hydroxy-N-((1R,2R)-2-hydroxycyclopentyl)-6-(hydroxymethyl)-3-methoxytetrahydro-2H-pyran-2-carboxamide]
11 | 0.411 | COc1cc(-c2cn([C@H]3[C@@H](O)[C@@H](CO)O[C@@H](C(=O)N(c4cc(C)cc(Br)c4)[C@@H]4CCC[C@H]4O)[C@@H]3OC)nn2)cc(F)c1F [Example 1.3.12R, (2R,3R,4S,5R,6R)-N-(3-bromo-5-methylphenyl)-4-(4-(3,4-difluoro-5-methoxyphenyl)-1H-1,2,3-triazol-1-yl)-5-hydroxy-N-((1R,2R)-2-hydroxycyclopentyl)-6-(hydroxymethyl)-3-methoxytetrahydro-2H-pyran-2-carboxamide]
12 | 0.0788 | CO[C@@H]1[C@@H](n2cc(-c3cc(F)c(F)c(F)c3)nn2)[C@@H](O)[C@@H](CO)O[C@H]1C(=O)N(c1cccc(Br)c1)[C@H]1CCC[C@@H]1O [Example 1.1.10, (2R,3R,4S,5R,6R)-N-(3-bromophenyl)-5-hydroxy-N-((1S,2S)-2-hydroxycyclopentyl)-6-(hydroxymethyl)-3-methoxy-4-(4-(3,4,5-trifluorophenyl)-1H-1,2,3-triazol-1-yl)tetrahydro-2H-pyran-2-carboxamide]
13 | 0.0198 | CC(=O)O[C@@H]1[C@@H](n2cc(-c3cc(F)c(Cl)c(F)c3)nn2)[C@@H](O)[C@@H](CO)O[C@H]1C(=O)N(c1cc(Cl)cc(Cl)c1)[C@H]1CCC[C@@H]1O [Example 1A.5.2, (2R,3R,4S,5R,6R)-4-(4-(4-chloro-3,5-difluorophenyl)-1H-1,2,3-triazol-1-yl)-2-((3,5-dichlorophenyl)((1S,2S)-2-hydroxycyclopentyl)carbamoyl)-5-hydroxy-6-(hydroxymethyl)tetrahydro-2H-pyran-3-yl acetate]
14 | 0.0259 | CO[C@@H]1[C@@H](n2cc(-c3ccc(Br)c(F)c3F)nn2)[C@@H](O)[C@@H](CO)O[C@H]1C(=O)N(c1cc(Br)cc(C#N)c1)[C@H]1CC[C@@H]1O [Example 2.12.5, (2R,3R,4S,5R,6R)-4-(4-(4-bromo-2,3-difluorophenyl)-1H-1,2,3-triazol-1-yl)-N-(3-bromo-5-cyanophenyl)-5-hydroxy-N-((1S,2S)-2-hydroxycyclobutyl)-6-(hydroxymethyl)-3-methoxytetrahydro-2H-pyran-2-carboxamide]
